Data set [1] has as its target CYP3A4 (Homo sapiens, UniProt P08684). Briefly: Inhibition of CYP3A4 (unknown origin) at 10 uM relative to control. It is filed as ADME.
In data set [2] the target is HDAC4 (Homo sapiens, UniProt P56524). Kind of data set: Inhibition of HDAC4 (unknown origin) at 10 uM relative to control.
A short description of data set [3]: Cytotoxicity against human MCF7 cells assessed as cell growth inhibition at 10 uM after 24 hrs relative to control. The class given is cell-based.
A short description of data set [4]: Cytotoxicity against human hTERT cells assessed as cell growth inhibition at 10 uM after 48 hrs relative to control. It is filed as cell-based, hTERT-BJ.
Data set [5] addresses T1, SIRT7 (Homo sapiens, UniProt Q9NRC8).
T1 sequence (Q9NRC8 whole entry): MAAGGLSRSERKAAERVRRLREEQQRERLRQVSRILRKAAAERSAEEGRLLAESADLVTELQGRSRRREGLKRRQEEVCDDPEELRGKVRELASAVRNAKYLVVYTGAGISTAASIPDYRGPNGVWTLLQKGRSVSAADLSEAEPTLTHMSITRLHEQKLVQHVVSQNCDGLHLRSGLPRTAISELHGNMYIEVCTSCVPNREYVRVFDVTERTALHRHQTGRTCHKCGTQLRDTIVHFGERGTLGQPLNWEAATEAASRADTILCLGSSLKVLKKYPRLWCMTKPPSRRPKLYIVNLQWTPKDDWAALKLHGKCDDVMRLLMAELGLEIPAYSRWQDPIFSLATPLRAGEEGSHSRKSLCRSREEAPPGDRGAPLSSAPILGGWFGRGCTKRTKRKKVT
Kind of data set: Inhibition of SIRT7 (unknown origin) at 10 uM relative to control.

Data set [6] can be described thus: Cytotoxicity against human HEK293 cells assessed as cell growth inhibition at 10 uM after 48 hrs relative to control. It is filed as cell-based.
The target in data set [7] is CYP2C19 (Homo sapiens, UniProt P33261). Kind of data set: Inhibition of CYP2C19 (unknown origin) at 10 uM relative to control. The class given is ADME.
A short description of data set [8]: Cytotoxicity against human U2OS cells assessed as cell growth inhibition at 10 uM after 48 hrs relative to control. The class given is cell-based.
The nature of data set [9]: Cytotoxicity against human hTERT cells assessed as cell growth inhibition at 10 uM after 24 hrs relative to control. It is filed as cell-based, hTERT-BJ.
Data set [10] has as its target Aurora B (Homo sapiens, UniProt Q96GD4). Briefly: Inhibition of Aurora B (unknown origin) at 10 uM relative to control.
The nature of data set [11]: Cytotoxicity against human HEK293 cells assessed as cell growth inhibition at 10 uM after 24 hrs relative to control. It is filed as cell-based.
Data set [12] deals with CYP2C9 (Homo sapiens, UniProt P11712). Briefly: Inhibition of CYP2C9 (unknown origin) at 10 uM relative to control. The class given is ADME.
For data set [13], the target named is 3',5'-cyclic-AMP phosphodiesterase 4C (Homo sapiens) (UniProt Q08493). Kind of data set: Inhibition of PDE4C1 (unknown origin) at 10 uM relative to control.
For data set [14], the target named is T2, HDAC6 (Homo sapiens, UniProt Q9UBN7).
T2 sequence (Q9UBN7 whole entry): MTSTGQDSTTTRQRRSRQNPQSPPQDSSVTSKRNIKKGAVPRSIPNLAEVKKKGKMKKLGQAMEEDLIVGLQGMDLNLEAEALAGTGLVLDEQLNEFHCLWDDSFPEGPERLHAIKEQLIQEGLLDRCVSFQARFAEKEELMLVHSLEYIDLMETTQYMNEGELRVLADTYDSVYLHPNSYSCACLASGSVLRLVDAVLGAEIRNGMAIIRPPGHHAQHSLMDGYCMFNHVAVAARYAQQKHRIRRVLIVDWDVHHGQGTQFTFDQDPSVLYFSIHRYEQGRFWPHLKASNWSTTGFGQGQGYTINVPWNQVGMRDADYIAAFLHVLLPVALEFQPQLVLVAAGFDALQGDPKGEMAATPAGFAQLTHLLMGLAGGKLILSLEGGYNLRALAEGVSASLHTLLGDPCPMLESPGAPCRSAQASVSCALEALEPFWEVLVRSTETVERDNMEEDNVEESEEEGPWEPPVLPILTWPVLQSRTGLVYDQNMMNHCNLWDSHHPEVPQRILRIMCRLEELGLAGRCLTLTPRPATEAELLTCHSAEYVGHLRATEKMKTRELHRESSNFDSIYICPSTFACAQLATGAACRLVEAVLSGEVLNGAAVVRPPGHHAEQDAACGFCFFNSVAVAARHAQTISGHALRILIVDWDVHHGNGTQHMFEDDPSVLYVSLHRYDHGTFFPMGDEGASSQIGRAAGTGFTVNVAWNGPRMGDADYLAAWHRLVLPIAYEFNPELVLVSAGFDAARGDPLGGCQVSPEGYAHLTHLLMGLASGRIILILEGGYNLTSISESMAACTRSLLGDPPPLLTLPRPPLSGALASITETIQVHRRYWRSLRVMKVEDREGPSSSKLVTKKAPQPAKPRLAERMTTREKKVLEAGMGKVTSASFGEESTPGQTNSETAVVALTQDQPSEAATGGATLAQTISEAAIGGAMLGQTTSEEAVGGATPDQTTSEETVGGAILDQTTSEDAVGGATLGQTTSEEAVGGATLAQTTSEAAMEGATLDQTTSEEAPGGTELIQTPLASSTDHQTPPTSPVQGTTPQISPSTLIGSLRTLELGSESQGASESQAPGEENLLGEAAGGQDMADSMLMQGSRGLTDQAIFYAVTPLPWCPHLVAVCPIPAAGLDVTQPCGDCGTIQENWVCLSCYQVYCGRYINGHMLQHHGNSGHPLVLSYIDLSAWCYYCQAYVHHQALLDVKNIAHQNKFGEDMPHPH
Kind of data set: Inhibition of HDAC6 (unknown origin) at 10 uM relative to control.

The nature of data set [15]: Cytotoxicity against human U2OS cells assessed as cell growth inhibition at 10 uM after 24 hrs relative to control. It is filed as cell-based.
The target of data set [16] is T3, CYP1A2 (Homo sapiens, UniProt P05177).
T3 sequence (P05177 whole entry): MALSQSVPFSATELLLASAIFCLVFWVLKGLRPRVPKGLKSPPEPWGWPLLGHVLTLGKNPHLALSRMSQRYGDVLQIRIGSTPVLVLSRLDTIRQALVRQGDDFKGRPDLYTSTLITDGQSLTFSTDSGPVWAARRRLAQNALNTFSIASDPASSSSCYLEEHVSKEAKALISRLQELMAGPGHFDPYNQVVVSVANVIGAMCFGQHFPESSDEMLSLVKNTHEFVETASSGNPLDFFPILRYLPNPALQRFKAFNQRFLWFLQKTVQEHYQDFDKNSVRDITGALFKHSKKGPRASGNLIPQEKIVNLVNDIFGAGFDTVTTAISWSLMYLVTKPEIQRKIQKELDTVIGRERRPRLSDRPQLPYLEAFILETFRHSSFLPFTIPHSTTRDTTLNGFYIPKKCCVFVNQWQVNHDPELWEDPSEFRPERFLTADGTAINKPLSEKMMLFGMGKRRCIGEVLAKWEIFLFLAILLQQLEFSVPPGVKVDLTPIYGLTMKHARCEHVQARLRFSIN
Briefly: Inhibition of CYP1A2 (unknown origin) at 10 uM relative to control. It is filed as ADME.

Data set [17] has as its target hERG (KCNH2) (Homo sapiens, UniProt Q12809). Briefly: Inhibition of human ERG at 10 uM by fluorescence polarization assay relative to control.
Data set [18] addresses T4, HDAC8 (Homo sapiens, UniProt Q9BY41).
T4 sequence (Q9BY41 whole entry): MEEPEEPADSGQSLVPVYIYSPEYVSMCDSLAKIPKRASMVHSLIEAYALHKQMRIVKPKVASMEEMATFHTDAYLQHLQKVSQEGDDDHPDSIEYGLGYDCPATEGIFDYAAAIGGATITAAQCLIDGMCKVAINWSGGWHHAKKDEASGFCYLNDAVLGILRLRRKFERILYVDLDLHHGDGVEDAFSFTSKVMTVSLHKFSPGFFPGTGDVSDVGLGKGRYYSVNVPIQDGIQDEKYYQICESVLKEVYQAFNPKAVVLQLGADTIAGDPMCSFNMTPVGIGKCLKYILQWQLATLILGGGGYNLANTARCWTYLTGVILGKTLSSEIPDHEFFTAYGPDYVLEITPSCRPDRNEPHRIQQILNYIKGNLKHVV
Kind of data set: Inhibition of HDAC8 (unknown origin) at 10 uM relative to control.

Data set [19] addresses CYP2D6 (Homo sapiens, UniProt P10635). Briefly: Inhibition of CYP2D6 (unknown origin) at 10 uM relative to control. It is filed as ADME.
The nature of data set [20]: Cytotoxicity against human MCF7 cells assessed as cell growth inhibition at 10 uM after 48 hrs relative to control. It is filed as cell-based.
In data set [21] the target is HDAC9 (Homo sapiens, UniProt Q9UKV0). Briefly: Inhibition of HDAC9 (unknown origin) at 10 uM relative to control.

This note sets out measurements from ChEMBL document CHEMBL4680157, “Design, synthesis and biological evaluation of novel TRβ selective agonists sustained by ADME-toxicity analysis” (Eur J Med Chem, 2020).

Sequence of CYP3A4 (P08684 whole entry): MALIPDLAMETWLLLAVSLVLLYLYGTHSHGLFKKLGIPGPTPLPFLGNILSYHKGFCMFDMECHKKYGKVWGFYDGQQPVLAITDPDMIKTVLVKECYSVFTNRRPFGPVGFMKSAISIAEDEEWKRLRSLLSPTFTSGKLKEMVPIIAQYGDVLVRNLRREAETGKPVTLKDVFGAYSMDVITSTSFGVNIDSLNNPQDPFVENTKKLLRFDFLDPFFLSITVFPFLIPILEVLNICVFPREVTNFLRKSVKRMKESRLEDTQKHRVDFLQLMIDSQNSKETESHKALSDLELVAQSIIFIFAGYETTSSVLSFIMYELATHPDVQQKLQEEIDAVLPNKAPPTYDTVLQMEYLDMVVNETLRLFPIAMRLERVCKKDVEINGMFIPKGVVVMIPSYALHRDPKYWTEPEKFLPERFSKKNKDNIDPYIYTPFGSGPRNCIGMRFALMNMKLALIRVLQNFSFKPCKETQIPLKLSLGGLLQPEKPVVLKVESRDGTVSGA
Sequence of CYP2D6 (P10635 whole entry): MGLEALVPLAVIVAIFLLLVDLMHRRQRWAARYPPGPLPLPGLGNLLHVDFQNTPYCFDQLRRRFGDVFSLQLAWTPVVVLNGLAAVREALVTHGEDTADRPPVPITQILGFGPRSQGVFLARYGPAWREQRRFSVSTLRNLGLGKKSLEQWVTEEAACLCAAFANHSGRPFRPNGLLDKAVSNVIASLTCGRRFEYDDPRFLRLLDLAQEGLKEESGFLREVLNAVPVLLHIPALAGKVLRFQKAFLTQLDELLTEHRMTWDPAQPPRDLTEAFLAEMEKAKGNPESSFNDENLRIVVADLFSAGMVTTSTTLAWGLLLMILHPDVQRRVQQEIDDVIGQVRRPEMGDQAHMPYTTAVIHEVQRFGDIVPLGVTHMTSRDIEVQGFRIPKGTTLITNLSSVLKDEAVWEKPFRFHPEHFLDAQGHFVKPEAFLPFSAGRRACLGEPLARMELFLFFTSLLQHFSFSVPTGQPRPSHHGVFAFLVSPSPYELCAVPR
Sequence of 3',5'-cyclic-AMP phosphodiesterase 4C (Homo sapiens) (Q08493 whole entry): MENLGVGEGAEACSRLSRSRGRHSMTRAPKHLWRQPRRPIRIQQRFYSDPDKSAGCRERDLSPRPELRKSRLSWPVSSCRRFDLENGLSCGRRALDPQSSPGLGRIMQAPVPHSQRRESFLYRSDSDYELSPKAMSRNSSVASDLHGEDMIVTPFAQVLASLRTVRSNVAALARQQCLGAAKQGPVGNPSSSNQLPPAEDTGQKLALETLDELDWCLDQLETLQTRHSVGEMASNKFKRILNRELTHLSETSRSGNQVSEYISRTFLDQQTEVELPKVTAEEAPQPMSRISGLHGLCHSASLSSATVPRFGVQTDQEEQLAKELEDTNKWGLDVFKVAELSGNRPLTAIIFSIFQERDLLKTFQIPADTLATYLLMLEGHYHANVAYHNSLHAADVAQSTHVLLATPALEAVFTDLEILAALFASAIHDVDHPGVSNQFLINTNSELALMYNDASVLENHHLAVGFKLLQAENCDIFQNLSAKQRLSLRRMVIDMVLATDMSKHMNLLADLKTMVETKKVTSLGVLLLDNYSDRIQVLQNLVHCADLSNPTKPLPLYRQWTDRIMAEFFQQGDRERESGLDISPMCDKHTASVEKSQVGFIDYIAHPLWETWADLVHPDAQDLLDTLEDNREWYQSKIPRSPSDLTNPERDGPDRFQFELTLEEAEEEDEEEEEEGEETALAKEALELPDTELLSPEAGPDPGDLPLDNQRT
Sequence of HDAC4 (P56524 whole entry): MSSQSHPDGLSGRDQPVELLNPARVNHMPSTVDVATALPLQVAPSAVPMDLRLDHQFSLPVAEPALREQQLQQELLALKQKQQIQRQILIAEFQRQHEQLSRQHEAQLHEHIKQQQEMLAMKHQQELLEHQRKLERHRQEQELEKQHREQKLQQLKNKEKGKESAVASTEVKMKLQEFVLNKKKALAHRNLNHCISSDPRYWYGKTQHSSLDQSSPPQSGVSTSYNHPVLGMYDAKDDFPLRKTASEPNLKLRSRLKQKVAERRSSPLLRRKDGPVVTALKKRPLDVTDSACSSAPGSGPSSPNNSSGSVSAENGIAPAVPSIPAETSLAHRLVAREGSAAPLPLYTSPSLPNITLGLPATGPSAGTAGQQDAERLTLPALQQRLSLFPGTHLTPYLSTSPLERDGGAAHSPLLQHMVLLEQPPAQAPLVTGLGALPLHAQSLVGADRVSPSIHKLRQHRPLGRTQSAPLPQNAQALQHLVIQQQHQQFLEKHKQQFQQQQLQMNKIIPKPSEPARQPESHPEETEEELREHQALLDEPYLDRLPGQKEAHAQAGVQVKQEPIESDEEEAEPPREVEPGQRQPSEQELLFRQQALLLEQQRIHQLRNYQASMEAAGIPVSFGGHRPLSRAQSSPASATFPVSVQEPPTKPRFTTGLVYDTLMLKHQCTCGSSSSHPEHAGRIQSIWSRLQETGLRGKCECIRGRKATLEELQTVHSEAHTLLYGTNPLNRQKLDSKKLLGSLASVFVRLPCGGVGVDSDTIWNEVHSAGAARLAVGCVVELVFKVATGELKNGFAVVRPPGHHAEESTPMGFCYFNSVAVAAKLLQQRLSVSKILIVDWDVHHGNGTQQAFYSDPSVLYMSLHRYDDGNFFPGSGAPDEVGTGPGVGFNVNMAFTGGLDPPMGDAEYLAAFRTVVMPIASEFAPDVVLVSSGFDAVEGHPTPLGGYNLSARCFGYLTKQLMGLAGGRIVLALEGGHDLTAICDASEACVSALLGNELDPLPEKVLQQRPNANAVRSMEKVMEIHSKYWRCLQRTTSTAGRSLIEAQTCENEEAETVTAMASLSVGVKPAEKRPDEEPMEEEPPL
Sequence of hERG (KCNH2) (Q12809 whole entry): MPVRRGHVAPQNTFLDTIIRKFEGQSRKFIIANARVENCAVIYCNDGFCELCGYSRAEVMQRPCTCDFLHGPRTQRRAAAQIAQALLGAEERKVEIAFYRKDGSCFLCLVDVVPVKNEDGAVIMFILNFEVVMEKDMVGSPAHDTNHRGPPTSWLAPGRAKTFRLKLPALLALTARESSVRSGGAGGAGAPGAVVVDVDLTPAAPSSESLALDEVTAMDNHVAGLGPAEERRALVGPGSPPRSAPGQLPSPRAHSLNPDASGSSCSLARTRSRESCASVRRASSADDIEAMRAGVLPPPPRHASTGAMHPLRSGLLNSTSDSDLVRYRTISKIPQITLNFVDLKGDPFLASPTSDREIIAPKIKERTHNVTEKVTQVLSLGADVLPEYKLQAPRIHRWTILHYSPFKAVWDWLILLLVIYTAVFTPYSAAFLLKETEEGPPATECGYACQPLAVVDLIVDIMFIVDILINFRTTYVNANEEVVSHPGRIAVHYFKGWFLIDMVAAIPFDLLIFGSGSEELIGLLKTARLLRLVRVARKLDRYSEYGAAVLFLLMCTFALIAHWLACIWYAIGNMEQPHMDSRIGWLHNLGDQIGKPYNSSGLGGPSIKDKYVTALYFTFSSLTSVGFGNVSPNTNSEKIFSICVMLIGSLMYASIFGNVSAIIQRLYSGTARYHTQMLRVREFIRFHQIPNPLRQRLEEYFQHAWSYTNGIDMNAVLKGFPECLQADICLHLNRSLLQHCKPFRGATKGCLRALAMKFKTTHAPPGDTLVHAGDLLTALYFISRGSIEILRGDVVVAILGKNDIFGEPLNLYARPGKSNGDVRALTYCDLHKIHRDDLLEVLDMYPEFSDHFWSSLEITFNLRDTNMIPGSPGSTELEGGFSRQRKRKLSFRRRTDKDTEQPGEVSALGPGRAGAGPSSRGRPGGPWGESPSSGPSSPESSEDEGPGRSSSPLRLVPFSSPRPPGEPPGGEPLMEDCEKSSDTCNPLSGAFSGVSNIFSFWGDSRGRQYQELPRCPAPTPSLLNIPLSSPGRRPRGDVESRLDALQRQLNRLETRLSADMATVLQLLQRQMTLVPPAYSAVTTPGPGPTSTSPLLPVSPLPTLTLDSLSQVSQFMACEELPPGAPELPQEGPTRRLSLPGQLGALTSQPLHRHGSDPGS
Sequence of CYP2C9 (P11712 whole entry): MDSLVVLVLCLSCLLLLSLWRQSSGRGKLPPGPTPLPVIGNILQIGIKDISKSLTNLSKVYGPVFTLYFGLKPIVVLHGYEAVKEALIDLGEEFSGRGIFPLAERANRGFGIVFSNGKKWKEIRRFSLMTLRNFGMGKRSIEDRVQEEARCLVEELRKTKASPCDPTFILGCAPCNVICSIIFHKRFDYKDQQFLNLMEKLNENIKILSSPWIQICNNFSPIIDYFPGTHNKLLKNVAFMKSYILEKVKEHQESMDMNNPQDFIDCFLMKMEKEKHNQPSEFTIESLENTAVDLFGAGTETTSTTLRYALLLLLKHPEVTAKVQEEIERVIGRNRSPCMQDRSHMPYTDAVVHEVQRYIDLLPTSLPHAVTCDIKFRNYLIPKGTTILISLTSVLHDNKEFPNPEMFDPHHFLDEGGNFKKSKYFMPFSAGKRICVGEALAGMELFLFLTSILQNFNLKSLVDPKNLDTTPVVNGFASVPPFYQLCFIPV
Sequence of Aurora B (Q96GD4 whole entry): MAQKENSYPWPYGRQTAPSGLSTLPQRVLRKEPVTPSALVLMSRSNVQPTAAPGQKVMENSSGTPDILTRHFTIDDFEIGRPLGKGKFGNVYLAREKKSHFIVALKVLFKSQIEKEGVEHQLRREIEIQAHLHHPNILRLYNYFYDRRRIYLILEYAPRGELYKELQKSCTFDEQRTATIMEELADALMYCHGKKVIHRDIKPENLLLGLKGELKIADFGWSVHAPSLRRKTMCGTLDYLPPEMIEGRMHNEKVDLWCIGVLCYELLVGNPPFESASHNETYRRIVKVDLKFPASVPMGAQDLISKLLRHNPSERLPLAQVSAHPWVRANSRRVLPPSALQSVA

With `Cc1cc(OCCN)cc(C)c1Cc1ccc(O)cc1`, the inhibition at 10 µM in [1] is 51%; in data set [2], below 50%; in data set [5] it was below 50%; in data set [7], above 91%; in data set [10] it was below 50%; in data set [12] it was above 91%. The inhibition at 10 µM was below 50% in data set [14]; 51% in data set [16]; 51% in [17]; below 50% in data set [18]; 51% in data set [19]; below 50% in data set [21]. Further, the inhibition at 24 h, 10 µM in data set [3], in data set [9], in data set [11] and in [15] was below 50% throughout. In addition, the inhibition at 48 h, 10 µM in data set [4], in data set [6], in data set [8] and in data set [20] was below 50% throughout. Moreover, the inhibition in [13] is below 50%.

As to `CC(C)c1cc(Cc2ccc(OCC(=O)O)cc2)ccc1N`, the inhibition at 10 µM in [1], in data set [2], in data set [5], in [7], in [10] and in data set [12] was below 50% in each case. The inhibition at 10 µM in [14] was below 50%; in [16] it was below 50%; in data set [17], below 40%; in data set [18] it was below 50%; in [19], below 50%; in [21] it was below 50%. For the same compound, the inhibition at 24 h, 10 µM in data set [3], in data set [9], in data set [11] and in [15] was below 50% throughout. The inhibition at 48 h, 10 µM in data set [4], in [6], in data set [8] and in [20] was below 50% in each case. Moreover, the inhibition in data set [13] is below 50%.

Take `CCNc1ccc(Cc2ccc(OCC(=O)O)cc2)cc1C(C)C`: the inhibition at 10 µM in [1] was above 91%; in data set [2], below 50%; in [5], below 50%; in data set [7] it was above 91%; in [10] it was below 50%; in data set [12], above 91%. The inhibition at 10 µM in data set [14] was below 50%; in [16] it was above 91%; in [17], above 91%; in data set [18], below 50%; in [19] it was 51%; in data set [21], below 50%. The inhibition at 24 h, 10 µM was 65% in data set [3], 51% in data set [9], below 50% in data set [11] and below 50% in data set [15]. Besides, the inhibition at 48 h, 10 µM in data set [4] was below 50%; in data set [6] it was below 50%; in data set [8] it was below 50%; in data set [20], 51%. Further, the inhibition in data set [13] is below 50%.

For the compound `Cc1cc(OCC(=O)O)cc(C)c1Cc1ccc(N)cc1`, the inhibition at 10 µM in data set [1], in data set [2], in [5], in data set [7], in data set [10] and in [12] was below 50% each time. Besides, the inhibition at 10 µM is below 50% in data set [14]; below 50% in [16]; below 25% in data set [17]; below 50% in data set [18]; below 50% in [19]; below 50% in [21]. Further, the inhibition at 24 h, 10 µM in data set [3], in [9], in data set [11] and in data set [15] was below 50% throughout. In addition, the inhibition at 48 h, 10 µM in data set [4], in data set [6], in data set [8] and in [20] was below 50% in each case. Moreover, the inhibition in [13] was below 50%.
